Measured values taken from article PMC4159282, “Gi Proteins Regulate Adenylyl Cyclase Activity Independent of Receptor Activation” (PLoS ONE, 2014).

Target: T1, β2-adrenoceptor (β2AR) (Rattus norvegicus, UniProt P10608)
T1 construct: gene Adrb2
T1 sequence (P10608 whole entry): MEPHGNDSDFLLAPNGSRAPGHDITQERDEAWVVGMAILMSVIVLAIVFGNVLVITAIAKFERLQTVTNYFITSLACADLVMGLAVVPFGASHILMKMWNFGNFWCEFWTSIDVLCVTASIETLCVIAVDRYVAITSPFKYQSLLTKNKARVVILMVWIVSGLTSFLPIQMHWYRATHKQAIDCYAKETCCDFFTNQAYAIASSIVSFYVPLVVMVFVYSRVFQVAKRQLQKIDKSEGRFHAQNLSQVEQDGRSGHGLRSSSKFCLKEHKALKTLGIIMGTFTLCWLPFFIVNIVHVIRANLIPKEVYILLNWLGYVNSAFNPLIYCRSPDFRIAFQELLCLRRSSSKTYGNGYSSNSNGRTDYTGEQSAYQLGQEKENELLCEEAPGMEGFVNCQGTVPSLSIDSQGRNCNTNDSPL

SMILES | EC50 [nM]
C[C@@H](Cc1ccc(O)cc1)NC[C@H](O)c1cc(O)cc(O)c1 (racemic) [RS, (R,S)-fenoterol] | 3500 ± 500
C[C@H](Cc1ccc(O)cc1)NC[C@H](O)c1cc(O)cc(O)c1 [RR, (R,R)-fenoterol] | 140 ± 48
